Laboratory results: patent US6093838A, “Amines substituted with a dihydro-benzofuranyl or with a dihydro-isobenzofuranyl group, an aryl or heteroaryl group and an alkyl group, having retinoid-like biological activity” (Allergan Sales, Inc., priority 1999, dated 2000)

How the values were obtained:
RXRα = biological target: T1, RXRα (Homo sapiens, UniProt P19793); test: holoreceptor transactivation assay, RXRα; type: cell-based; conditions: for EC50: holoreceptor transactivation, RXRα, read-out: RXR Trans. EC50 α; for Emax: relative to 10^-6 M cyclopropyl penta-2,4-dienoic acid reference (RXRs), read-out: % efficacy (RXRα transactivation)
T1 construct: expressed in transfected cells
T1 sequence (P19793 1-462): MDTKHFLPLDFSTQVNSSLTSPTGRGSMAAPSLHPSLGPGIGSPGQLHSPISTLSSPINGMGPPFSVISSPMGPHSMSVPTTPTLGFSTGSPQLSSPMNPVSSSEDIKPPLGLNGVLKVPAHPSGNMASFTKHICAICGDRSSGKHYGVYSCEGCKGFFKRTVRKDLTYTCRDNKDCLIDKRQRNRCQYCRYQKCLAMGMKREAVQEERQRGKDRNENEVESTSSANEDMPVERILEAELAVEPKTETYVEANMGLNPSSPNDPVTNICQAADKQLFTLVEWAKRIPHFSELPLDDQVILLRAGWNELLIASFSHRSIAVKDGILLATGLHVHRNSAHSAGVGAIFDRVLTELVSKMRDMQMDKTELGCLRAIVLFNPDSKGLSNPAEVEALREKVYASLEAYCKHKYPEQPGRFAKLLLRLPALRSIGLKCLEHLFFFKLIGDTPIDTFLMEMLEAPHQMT
Text: (§1) Other assays described below, measure the ability of the compounds of the present invention to bind to, and/or activate various retinoid receptor subtypes. When in these assays a compound binds to a given receptor subtype and activates the transcription of a reporter gene through that subtype, then the compound is considered an agonist of that receptor subtype. […] In the below described assays the ability of the compounds to bind to RARα, RARβ, RARγ, RXRα, RXRβ and RXRγ receptors, and the ability or inability of the compounds to activate transcription of a reporter gene through these receptor subtypes can be tested. […] However, some of the compounds of the invention may behave as retinoid antagonists or partial antagonists and/or as inverse agonists. Because of the complex distribution of the different retinoid receptors in various organs of the mammalian body partial agonists and partial antagonists and compounds which have the characteristics of both may lend themselves to particularly useful therapeutic applications and may avoid serious side effects of conventional retinoid drugs.
(§2) A holoreceptor transactivation assay and a ligand binding assay which measure the antagonist/agonist like activity of the compounds of the invention, or their ability to bind to the several retinoid receptor subtypes, respectively, are described in published PCT Application No. WO WO93/11755 (particularly on pages 30-33 and 37-41) published on Jun. 24, 1993, the specification of which is also incorporated herein by reference. A detailed experimental procedure for holoreceptor transactivations has been described by Heyman et al. Cell 68, 397-406, (1992); Allegretto et al. J. Biol. Chem. 268, 26625-26633, and Mangelsdorf et al. The Retinoids: Biology, Chemistry and Medicine, pp 319-349, Raven Press Ltd., New York, which are expressly incorporated herein by reference. The results obtained in this assay are expressed in EC50 numbers, as they are also in the chimeric receptor transactivation assay. The results of ligand binding assay are expressed in Kd numbers. (See Cheng et al. Biochemical Pharmacology Vol. 22 pp 3099-3108, expressly incorporated herein by reference.)
(§3) Table 1 discloses the activity of certain exemplary compounds of the invention in the above-described chimeric receptor transactivation assay, holoreceptor transactivation assay and a ligand binding assays. Particularly, the transactivation data pertaining to RAR receptors were obtained in the chimeric assay, and the data pertaining to transactivation of RXR receptors were obtained in the holoreceptor transactivation assay.

RXRβ = biological target: T2, RXRβ (Mus musculus, UniProt P28704); test: holoreceptor transactivation assay, RXRβ; type: cell-based; conditions: for EC50: holoreceptor transactivation, RXRβ, read-out: RXR Trans. EC50 β; for Emax: relative to 10^-6 M cyclopropyl penta-2,4-dienoic acid reference (RXRs), read-out: % efficacy (RXRβ transactivation)
T2 construct: expressed in transfected cells
T2 sequence (P28704 1-520): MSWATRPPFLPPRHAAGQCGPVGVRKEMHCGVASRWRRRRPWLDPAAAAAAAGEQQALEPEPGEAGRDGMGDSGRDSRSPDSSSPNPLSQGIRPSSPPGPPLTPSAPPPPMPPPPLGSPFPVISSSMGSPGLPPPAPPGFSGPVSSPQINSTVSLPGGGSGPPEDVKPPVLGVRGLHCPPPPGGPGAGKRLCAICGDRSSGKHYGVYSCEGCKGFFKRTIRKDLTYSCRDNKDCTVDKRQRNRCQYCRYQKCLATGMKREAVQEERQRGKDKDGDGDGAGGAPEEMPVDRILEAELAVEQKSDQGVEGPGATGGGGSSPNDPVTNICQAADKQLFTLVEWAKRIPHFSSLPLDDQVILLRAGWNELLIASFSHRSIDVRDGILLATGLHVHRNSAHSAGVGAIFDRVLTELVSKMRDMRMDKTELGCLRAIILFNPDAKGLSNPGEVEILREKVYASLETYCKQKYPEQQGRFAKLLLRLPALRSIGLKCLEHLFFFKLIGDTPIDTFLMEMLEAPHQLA
Text: as §1, §2, §3

RARβ = biological target: T3, RARβ (Homo sapiens, UniProt P10826); test: ligand binding assay, RARβ; conditions: read-out: RAR Bind. Ki β
T3 sequence (P10826 1-448 isoform P10826-2): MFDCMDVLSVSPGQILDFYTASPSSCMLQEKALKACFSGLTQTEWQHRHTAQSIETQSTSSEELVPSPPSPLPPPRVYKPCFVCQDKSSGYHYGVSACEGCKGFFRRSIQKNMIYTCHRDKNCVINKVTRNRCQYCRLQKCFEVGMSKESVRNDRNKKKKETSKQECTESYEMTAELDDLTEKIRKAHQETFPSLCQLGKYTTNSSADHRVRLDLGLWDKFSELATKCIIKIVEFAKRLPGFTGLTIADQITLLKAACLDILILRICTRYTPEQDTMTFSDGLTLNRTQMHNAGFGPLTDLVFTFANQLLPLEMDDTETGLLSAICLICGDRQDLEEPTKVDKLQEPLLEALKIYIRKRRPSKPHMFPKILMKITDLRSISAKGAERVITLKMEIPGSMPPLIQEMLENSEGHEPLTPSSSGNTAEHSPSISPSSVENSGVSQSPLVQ
Text: as §1, §2, §3

RXRγ = test: ligand binding assay, RXRγ; conditions: read-out: RXR Bind Ki γ
Text: as §1, §2, §3

| Compound | EC50 (RXRα) [nM] | Emax (RXRα) [%] | EC50 (RXRβ) [nM] | Emax (RXRβ) [%] | Ki (RARβ) [nM] | Ki (RXRγ) [nM] |
| --- | --- | --- | --- | --- | --- | --- |
| CCN(c1ccc(C(=O)O)cc1)c1cc(C(C)C)c2c(c1)C(C)(C)CO2 [Compound 31, 4-[Ethyl-(3,3-dimethyl-7-isopropyl-2,3-dihydro-benzofuran-5-yl)-amino]-benzoic acid] | 74 | 116 | 1000 | 75 | 29000 | 4100 |
| CCCCN(c1ccc(C(=O)O)cc1)c1ccc2c(c1)C(C)(C)OC2(C)C [Compound 85, 4-[n-Butyl-(1,1,3,3-tetramethyl-1,3-dihydro-isobenzofuran-5-yl)-amino]-benzoic acid] | 161 | 122 | 1000 | 60 | > 10000 | > 1000 |
| CCN(c1ccc(C(=O)O)cc1)c1cc(C(C)(C)C)c2c(c1)C(C)(C)CO2 [Compound 32, 4-[Ethyl-(7-t-butyl-3,3-dimethyl-2,3-dihydro-benzofuran-5-yl)-amino]-benzoic acid] | 98 | 103 | 1000 | 50 | > 1000 | 672 |
| CCCN(c1ccc(C(=O)O)cc1)c1ccc2c(c1)C(C)(C)OC2(C)C [Compound 84, 4-[n-Propyl-(1,1,3,3-tetramethyl-1,3-dihydro-isobenzofuran-5-yl)-amino]-benzoic acid] | 40 | 121 | 1000 | 184 | > 10000 | > 1000 |
| CC(C)N(c1ccc(C(=O)O)cc1)c1ccc2c(c1)C(C)(C)OC2(C)C [Compound 87, 4-[i-Propyl-(1,1,3,3-tetramethyl-1,3-dihydro-isobenzofuran-5-yl)-amino]-benzoic acid] | 57 | 115 | 1000 | 65 | > 10000 | 2100 |
| CC(C)c1cc(N(C)c2ccc(C(=O)O)cc2)cc2c1OCC2(C)C [Compound 30, 4-[Methyl-(3,3-dimethyl-7-isopropyl-2,3-dihydro-benzofuran-5-yl)-amino]-benzoic acid] | 1000 | 75 | > 1000 | 10 | > 30000 | > 10000 |
| Cc1c(N(c2ccc(C(=O)O)cc2)C(C)C)cc2c(c1C(C)(C)C)OCC2(C)C [Compound 73, 4-[Isopropyl-(7-t-butyl-3,3,6-trimethyl-2,3-dihydro-benzofuran-5-yl)-amino]-benzoic acid] | 10 | 92 | 71 | 92 | > 10000 | 236 |
| CCc1cc(N(c2ccc(C(=O)O)cc2)C(C)C)cc2c1OCC2(C)C [Compound 42, 4-[Isopropyl-(3,3-dimethyl-7-ethyl-2,3-dihydro-benzofuran-5-yl)-amino]-benzoic acid] | 203 | 100 | > 1000 | 30 | > 10000 | > 1000 |
| CCN(c1ccc(C(=O)O)cc1)c1ccc2c(c1)C(C)(C)OC2(C)C [Compound 83, 4-[Ethyl-(1,1,3,3-tetramethyl-1,3-dihydro-isobenzofuran-5-yl)-amino]-benzoic acid] | 39 | 107 | 1000 | 100 | > 10000 | > 1000 |
| CC(C)N(c1ccc(C(=O)O)cc1)c1cc(C(C)(C)C)c2c(c1)C(C)(C)CO2 [Compound 44, 4-[Isopropyl-(7-t-butyl-3,3-dimethyl-2,3-dihydro-benzofuran-5-yl)-amino]-benzoic acid] | 22 | 73 | 171 | 33 | > 1000 | 344 |
| CCN(c1ccc(C(=O)O)cc1)c1cc(C)c2c(c1)C(C)(C)CO2 [Compound 27, 4-[Ethyl-(3,3,7-trimethyl-2,3-dihydro-benzofuran-5-yl)-amino]-benzoic acid] | 1000 | 80 | > 1000 |  | > 30000 | > 100000 |
| CCc1cc(N(CC)c2ccc(C(=O)O)cc2)cc2c1OCC2(C)C [Compound 29, 4-[Ethyl-(3,3-dimethyl-7-ethyl-2,3-dihydro-benzofuran-5-yl)-amino]-benzoic acid] | 139 | 117 | 800 | 70 | > 10000 | > 1000 |
| CC(C)c1cc(N(c2ccc(C(=O)O)cc2)C(C)C)cc2c1OCC2(C)C [Compound 43] | 16 | 66 | 58 | 58 | > 10000 |  |
